Where a name gives a salt, the structure may show the parent alone. Read-outs that look alike come from different tables or passages of the source.

The conditions of data set [1]: I.V. dose of 3 mg/kg; cited from earlier work.
The conditions of data set [2]: in seven days; a similarly done study (reference not given); cited from earlier work.
The conditions of data set [3]: for Css: one 50-MN array.
The conditions of data set [4]: hairless, guinea pig, in vivo.
Setting [5] is: MN + Solaraze® + 16% NTX·HCl, n=4.

As to `O=C1CC[C@@]2(O)[C@H]3Cc4ccc(O)c5c4[C@@]2(CCN3CC2CC2)[C@H]1O5` [NTX·HCl, naltrexone HCl], the “systemic dose AUC” value in data set [1] is 546 ng/mL/h. Also, the “fraction of the total drug applied delivered through the skin” value in data set [2] was “less than 5%”. Moreover, the “delivered fraction of the dose” value in data set [3] (2.65 mg of 80 mg NTX applied to the MN-treated area) is on record as “less than 5%”. For the same compound, the Css in data set [3] (MN + 16% NTX·HCl (control, no Solaraze®), n=4) was determined as 3.4 ± 1.3 ng/mL; in data set [3] (setting [5]), 7.0 ± 1.5 ng/mL. Further, the Tlag in data set [3] (MN + 16% NTX·HCl (no Solaraze®), n=4) was determined as 1.8 ± 1.5 h; in data set [3] (setting [5]), 21.5 ± 12.6 h. Also, the “duration of increased plasma levels (Css)” value in data set [3] (MN + Solaraze® + 16% NTX·HCl gel, n=4) is on record as “seven”. The “time at which NTX·HCl levels returned to baseline” value in data set [3] (control: one-time MN + 0.5 g 16% NTX·HCl, 6.7 cm^2, no Solaraze®) was at most 60 h. Besides, the “flux corresponding to the steady-state concentration” value in data set [3] (from Css of 7.0 ng/ml, 6.7 cm^2 patch) is listed as “approximately 16.14 nmol/cm^2/h”. For the same compound, the “total delivery of naltrexone” value in data set [4] is 2.65 mg.

These data come from article PMC3377386 (Pharmaceutical Research, 2011).
